From publication PMC8578635 (Nature Communications, 2021) come the findings set out here.

The target of assay [1] is T1, TOP2A (Homo sapiens, UniProt P11388). Kind of assay: kDNA decatenation and pBR322 relaxation assays with purified human topoisomerase II; supported by band depletion and RADAR TOP2cc assays in cells. The class given is biochemical.
Assay [2] concerns the target T1, TOP2A. As to the kind of experiment: kDNA decatenation and pBR322 relaxation assays with purified human topoisomerase II; band depletion in CHP-134 cells. It counts as biochemical.
The target of assay [3] is topoisomerase II beta (TOP2B) (Homo sapiens, UniProt Q02880). Kind of assay: kDNA decatenation and pBR322 relaxation assays with purified human topoisomerase II. It counts as biochemical.
Assay [4] has as its target T1, TOP2A. The description is as above.

T1 sequence (P11388 whole entry): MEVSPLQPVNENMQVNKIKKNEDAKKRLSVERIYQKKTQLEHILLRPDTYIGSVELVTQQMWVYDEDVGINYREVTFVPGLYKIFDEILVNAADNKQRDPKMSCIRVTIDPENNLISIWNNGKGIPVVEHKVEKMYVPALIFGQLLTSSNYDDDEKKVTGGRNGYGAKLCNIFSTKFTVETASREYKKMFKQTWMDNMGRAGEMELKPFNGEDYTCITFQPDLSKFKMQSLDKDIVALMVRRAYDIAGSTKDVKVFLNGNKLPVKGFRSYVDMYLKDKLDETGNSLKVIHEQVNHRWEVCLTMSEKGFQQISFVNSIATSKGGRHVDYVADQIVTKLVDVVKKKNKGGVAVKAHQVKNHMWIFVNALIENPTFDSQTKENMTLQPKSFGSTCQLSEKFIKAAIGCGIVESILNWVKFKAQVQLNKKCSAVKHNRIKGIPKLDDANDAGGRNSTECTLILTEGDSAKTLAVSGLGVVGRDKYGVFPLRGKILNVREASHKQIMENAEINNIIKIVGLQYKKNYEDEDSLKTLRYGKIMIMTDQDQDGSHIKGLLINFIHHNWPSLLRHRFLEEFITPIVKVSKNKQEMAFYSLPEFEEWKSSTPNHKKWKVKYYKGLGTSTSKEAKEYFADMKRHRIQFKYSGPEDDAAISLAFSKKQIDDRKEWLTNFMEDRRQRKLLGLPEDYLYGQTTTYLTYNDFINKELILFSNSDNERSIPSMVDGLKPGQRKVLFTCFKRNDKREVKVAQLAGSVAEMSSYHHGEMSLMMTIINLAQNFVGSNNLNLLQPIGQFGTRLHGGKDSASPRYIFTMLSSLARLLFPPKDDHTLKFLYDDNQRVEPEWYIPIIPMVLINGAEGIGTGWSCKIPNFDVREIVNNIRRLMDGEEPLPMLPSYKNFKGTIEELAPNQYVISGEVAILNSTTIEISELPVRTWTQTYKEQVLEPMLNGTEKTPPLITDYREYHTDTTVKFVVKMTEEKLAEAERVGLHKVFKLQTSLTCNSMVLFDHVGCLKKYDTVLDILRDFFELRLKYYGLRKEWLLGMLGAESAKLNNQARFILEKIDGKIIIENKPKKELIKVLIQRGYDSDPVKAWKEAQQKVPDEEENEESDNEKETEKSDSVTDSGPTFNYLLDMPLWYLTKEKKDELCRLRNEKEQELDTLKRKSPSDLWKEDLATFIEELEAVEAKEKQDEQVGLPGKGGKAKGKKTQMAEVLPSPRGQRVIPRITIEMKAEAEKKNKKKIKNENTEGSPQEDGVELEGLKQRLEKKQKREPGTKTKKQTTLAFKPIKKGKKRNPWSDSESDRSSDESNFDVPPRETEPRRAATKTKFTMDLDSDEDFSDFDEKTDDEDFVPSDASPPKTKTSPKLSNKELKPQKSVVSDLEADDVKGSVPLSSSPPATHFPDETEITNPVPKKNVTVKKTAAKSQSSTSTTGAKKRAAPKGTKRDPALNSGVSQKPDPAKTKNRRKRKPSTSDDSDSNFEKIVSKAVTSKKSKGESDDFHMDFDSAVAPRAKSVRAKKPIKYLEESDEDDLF
topoisomerase II beta (TOP2B), sequence (Q02880 2-1626): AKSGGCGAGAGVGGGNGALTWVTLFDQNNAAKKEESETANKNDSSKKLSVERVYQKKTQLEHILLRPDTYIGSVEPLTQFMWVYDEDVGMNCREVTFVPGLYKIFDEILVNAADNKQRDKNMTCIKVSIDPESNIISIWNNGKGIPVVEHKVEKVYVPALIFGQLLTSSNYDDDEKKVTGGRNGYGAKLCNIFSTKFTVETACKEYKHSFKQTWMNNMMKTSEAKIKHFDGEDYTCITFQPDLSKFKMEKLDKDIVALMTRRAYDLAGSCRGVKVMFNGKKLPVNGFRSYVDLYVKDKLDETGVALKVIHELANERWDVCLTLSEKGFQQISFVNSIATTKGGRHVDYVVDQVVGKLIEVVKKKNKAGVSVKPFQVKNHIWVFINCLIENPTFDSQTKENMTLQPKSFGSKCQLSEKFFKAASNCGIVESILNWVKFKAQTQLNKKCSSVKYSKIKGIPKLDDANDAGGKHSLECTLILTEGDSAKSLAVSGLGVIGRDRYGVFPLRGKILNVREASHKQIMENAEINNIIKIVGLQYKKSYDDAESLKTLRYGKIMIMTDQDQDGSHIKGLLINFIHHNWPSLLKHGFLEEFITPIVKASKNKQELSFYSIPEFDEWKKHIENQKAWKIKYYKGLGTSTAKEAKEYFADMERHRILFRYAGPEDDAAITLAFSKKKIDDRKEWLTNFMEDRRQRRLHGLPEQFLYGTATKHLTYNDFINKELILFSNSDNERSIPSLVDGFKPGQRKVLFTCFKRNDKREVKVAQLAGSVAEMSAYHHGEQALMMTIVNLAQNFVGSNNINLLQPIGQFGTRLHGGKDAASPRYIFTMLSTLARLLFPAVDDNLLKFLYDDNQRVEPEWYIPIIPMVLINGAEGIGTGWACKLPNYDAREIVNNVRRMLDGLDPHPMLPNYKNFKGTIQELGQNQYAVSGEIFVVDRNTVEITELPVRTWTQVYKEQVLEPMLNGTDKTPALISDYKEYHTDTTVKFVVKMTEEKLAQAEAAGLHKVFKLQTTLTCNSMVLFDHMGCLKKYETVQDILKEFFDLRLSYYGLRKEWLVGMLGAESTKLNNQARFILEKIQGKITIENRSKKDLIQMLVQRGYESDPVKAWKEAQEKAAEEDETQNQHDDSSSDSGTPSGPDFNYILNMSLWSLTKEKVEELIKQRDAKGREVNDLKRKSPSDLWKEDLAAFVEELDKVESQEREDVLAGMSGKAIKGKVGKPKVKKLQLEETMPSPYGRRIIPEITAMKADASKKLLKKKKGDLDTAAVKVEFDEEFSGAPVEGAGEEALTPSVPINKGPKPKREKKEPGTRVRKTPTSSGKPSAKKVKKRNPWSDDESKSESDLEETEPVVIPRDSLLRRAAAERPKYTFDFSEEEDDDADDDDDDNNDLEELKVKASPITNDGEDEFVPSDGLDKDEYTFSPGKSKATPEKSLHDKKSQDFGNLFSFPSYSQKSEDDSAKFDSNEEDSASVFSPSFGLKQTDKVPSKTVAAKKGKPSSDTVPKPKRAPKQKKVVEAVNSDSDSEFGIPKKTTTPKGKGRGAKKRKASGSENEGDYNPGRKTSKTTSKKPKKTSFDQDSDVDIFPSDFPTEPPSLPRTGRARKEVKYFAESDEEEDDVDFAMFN

With `Cc1cnc(CNC(=O)c2c(=O)c3ccc(N4CCCN(C)CC4)nc3n3c2sc2ccccc23)cn1` [CX-5461], the “kDNA decatenation and pBR322 relaxation assays with purified human topoisomerase” value in assay [1] is “CX-5461 inhibited the activity of both TOP2A and TOP2B—strikingly at concentrations substantially lower than etoposide”.
For `COc1cccc2c1C(=O)c1c(O)c3c(c(O)c1C2=O)C[C@@](O)(C(=O)CO)C[C@@H]3O[C@H]1C[C@H](N)[C@H](O)[C@H](C)O1` [doxorubicin], the “kDNA decatenation and pBR322 relaxation assays with purified human topoisomerase” value in assay [2] is “Etoposide and doxorubicin had similar activity against both paralogs”.
Take `COc1cc([C@@H]2c3cc4c(cc3[C@@H](O[C@@H]3O[C@@H]5CO[C@@H](C)O[C@H]5[C@H](O)[C@H]3O)[C@H]3COC(=O)[C@H]23)OCO4)cc(OC)c1O` [etoposide]: the “kDNA decatenation and pBR322 relaxation assays with purified human topoisomerase” value in assay [3] is “Etoposide and doxorubicin had similar activity against both paralogs”; in assay [4], “Etoposide and doxorubicin had similar activity against both paralogs”.
